Assay results taken from patent US20220213092A1, “BICYCLIC PYRAZOLE BRUTON'S TYROSINE KINASE INHIBITORS” (AbbVie Inc., priority 2020, published 2022).
pEC50, pIC50: −log10 of the molar value.

Experiments:
EGFR = EGFR (Homo sapiens, UniProt P00533); assay: Other kinase MSA: EGFR; type: biochemical; conditions: 5 μM ATP, CSKtide substrate, 3 hours; read-out: IC50, Enzyme EGFR
Experimental: (§1) Kinase activity, unless otherwise indicated, was measured in vitro using an electrophoretic mobility shift assay (MSA). The phosphorylation of a peptide substrate by BTK and other kinases was measured. The kinase reactions were assembled in a total volume of 25 μL per well in 384 well plates. The following was added to each well: compound buffer (or control); enzyme buffer; and substrate buffer, as further described below.
(§2) Enzyme and compound/inhibitor were optionally pre-incubated. To each well was added: 8 μL of 2.5×ATP and substrate in 1× Master Buffer (1× Master Buffer as described above). The plate was incubated at room temperature for 3 hours. […] OG488 was Oregon Green dye, which was conjugated to the peptide substrate. […] The kinase activity for the kinases in Table 3 were measured at 3 hours incubation time, except that in the case of MAP2K1 and MAP2K2 assay, pre-activation of ERK was done for 30 min with 6 μM of ATP, and then the detection of activated ERK in the presence of compounds was done after 60 minutes of incubation.
(§3) The terminated reactions were analyzed using a 12 channel LABCHIP® 3000 microfluidic detection instrument (available from Caliper Life Sciences, Waltham, Mass.). […] Change in the relative fluorescence intensity of the substrate and product peaks was the parameter measured, reflecting enzyme activity. […]

[1] = target: T1, Phosphorylation of Y223 of BTK (Homo sapiens, UniProt Q06187); assay: Whole blood compound screening, phosphorylation of Y223 site of BTK (MSD assay); type: cell-based; conditions: healthy human whole blood, 2 hours at 37° C., 3 separate donors; read-out: WB BTK-pY223 EC50
T1 construct: host or cells: healthy human whole blood, 3 donors
T1 sequence (Q06187 whole entry): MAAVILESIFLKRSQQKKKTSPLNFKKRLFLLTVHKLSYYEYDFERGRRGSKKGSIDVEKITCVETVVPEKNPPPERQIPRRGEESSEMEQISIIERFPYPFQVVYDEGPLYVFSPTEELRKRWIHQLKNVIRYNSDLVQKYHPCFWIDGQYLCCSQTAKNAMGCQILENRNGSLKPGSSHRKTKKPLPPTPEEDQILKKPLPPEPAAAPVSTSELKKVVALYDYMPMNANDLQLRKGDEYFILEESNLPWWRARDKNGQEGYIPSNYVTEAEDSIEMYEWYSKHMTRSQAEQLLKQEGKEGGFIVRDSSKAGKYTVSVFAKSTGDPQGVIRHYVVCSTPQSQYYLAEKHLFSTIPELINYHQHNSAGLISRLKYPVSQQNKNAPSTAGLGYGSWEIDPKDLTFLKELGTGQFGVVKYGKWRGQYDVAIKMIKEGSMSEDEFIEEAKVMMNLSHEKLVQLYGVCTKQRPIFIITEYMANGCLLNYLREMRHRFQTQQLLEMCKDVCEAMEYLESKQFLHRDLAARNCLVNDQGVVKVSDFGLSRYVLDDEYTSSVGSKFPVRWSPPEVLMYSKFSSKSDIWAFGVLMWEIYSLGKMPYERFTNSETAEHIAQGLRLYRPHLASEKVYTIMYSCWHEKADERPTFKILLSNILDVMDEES
Outline: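 Heparinized human whole blood from 3 donors treated 2 h at 37 °C with compounds (8 points, top 10 μM, 1:4 dilution, 0.2% DMSO), then lysed. BTK pY223 quantified by MSD sandwich immunoassay (anti-BTK capture, anti-pY223 detection); EC50 from concentration response.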

BTK = target: T2, BTK (Homo sapiens, UniProt Q06187); assay: BTK kinase electrophoretic mobility shift assay (MSA); type: biochemical; conditions: 50 μM ATP, 0.5 nM BTK enzyme (Nanosyn-293HEK, WT), 3 hours at 25° C.; all examples except 50, 51, 62 and 63; read-out: BTK IC50
T2 construct: purchased Nanosyn, Santa Clara, Calif; host or cells: 293HEK
T2 sequence (Q06187 whole entry): as above

BLK = BLK (Homo sapiens, UniProt P51451); assay: Other kinase MSA: BLK; type: biochemical
Chain of BLK (P51451 whole entry, species assumed): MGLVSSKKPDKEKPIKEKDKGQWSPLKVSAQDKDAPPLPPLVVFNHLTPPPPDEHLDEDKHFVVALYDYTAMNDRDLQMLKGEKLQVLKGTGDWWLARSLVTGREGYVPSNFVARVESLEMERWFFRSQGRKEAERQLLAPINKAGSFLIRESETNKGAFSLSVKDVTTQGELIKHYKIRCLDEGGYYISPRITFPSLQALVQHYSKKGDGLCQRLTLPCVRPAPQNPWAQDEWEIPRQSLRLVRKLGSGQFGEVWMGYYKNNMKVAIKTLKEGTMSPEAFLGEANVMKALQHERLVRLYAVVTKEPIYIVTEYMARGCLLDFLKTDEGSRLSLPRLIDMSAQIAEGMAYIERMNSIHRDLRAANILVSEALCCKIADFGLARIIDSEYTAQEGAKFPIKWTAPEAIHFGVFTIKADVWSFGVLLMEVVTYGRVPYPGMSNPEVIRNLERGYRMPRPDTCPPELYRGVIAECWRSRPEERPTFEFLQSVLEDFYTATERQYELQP
Experimental: as §1, §2, §3

Chain of EGFR (P00533 25-1210, species assumed): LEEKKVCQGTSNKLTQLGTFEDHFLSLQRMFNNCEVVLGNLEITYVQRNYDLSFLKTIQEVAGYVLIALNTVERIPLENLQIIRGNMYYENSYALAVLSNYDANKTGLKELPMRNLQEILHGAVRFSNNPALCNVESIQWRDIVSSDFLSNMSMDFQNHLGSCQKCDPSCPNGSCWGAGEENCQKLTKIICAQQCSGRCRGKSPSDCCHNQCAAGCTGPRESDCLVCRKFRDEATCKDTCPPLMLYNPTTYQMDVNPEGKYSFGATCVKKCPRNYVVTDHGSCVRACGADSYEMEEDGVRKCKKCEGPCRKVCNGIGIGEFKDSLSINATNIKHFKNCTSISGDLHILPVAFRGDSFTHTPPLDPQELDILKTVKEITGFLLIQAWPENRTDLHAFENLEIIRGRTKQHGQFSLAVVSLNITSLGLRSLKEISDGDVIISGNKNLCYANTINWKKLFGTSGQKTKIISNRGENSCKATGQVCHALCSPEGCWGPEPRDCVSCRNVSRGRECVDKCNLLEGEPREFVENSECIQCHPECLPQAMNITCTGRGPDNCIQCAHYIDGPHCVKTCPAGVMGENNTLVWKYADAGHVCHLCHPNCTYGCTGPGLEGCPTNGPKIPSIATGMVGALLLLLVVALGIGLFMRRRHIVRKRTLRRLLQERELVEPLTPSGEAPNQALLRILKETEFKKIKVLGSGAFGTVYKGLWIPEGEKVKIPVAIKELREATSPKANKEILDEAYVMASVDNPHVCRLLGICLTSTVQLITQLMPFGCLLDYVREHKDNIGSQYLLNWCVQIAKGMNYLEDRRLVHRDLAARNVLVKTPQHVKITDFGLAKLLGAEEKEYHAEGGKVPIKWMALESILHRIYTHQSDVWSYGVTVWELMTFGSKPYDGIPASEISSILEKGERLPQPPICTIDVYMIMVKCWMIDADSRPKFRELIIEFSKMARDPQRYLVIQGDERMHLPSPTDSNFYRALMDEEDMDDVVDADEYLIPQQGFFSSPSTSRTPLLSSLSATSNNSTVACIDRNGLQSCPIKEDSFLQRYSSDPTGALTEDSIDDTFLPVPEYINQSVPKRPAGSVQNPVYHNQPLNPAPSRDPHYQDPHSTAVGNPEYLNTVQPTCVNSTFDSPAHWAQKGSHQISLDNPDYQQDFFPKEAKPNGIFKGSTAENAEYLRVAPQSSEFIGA

pIC50 (EGFR): 6.07
pEC50 [1]: 7.62
pIC50 (BTK): 8.96
pIC50 (BLK): 6.86
Structure (SMILES): C=CC(=O)N1CCN([C@@H]2CCNc3c2nn(-c2ccc(Oc4ccccc4)cc2)c3C(N)=O)CC1 [Example 6, (7R)-2-(4-phenoxyphenyl)-7-[4-(prop-2-enoyl)piperazin-1-yl]-4,5,6,7-tetrahydro-2H-pyrazolo[4,3-b]pyridine-3-carboxamide]
